Experimental data: the supplement of paper PMC12698765
Where a name gives a salt, the structure may show the parent alone. ± gives the standard deviation of the averaged measurements.

Assays:
[1] = test system: 409B2 hiPSC (iCRISPR Cas9, FRMD7 editing); assay: cell survival relative to solvent control (fold (ratio to mock)); higher = more surviving cells
Experimental: (§1)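 Subset screen of 55 drugs tested at 5 concentrations around the effective screening dose, in 409B2 iCRISPR Cas9 hiPSCs editing FRMD7 with a ssDNA donor. Drugs were applied for 24 h. Viability was read by resazurin and editing outcomes by amplicon sequencing (HDR, NHEJ <2 bp microhomology, MMEJ ≥2 bp microhomology). Values are relative to solvent mock controls; two biological replicates.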

[2] = test system: 409B2 hiPSC (iCRISPR Cas9, FRMD7 editing); assay: HDR (precise edit) frequency relative to solvent control (fold (ratio to mock)); higher = more homology-directed repair outcomes
Experimental: as §1

[3] = test system: 409B2 hiPSC (iCRISPR Cas9, FRMD7 editing); assay: MMEJ-attributed deletion frequency relative to solvent control (fold (ratio to mock)); higher = more MMEJ outcomes
Experimental: as §1

[4] = test system: 409B2 hiPSC (iCRISPR Cas9, FRMD7 editing); assay: NHEJ-attributed indel frequency relative to solvent control (fold (ratio to mock)); higher = more NHEJ outcomes
Experimental: as §1

Structure (SMILES) | cell survival ([1]; 2000 nM) | cell survival ([1]; 5000 nM) | HDR ([2]; 2000 nM) | HDR ([2]; 5000 nM) | MMEJ-attributed deletion frequency ([3]; 2000 nM) | MMEJ-attributed deletion frequency ([3]; 5000 nM) | NHEJ-attributed indel frequency ([4]; 2000 nM) | NHEJ-attributed indel frequency ([4]; 5000 nM) | cell survival ([1]; 200 nM) | cell survival ([1]; 500 nM) | cell survival ([1]; 1000 nM) | HDR ([2]; 200 nM) | HDR ([2]; 500 nM) | HDR ([2]; 1000 nM) | MMEJ-attributed deletion frequency ([3]; 200 nM) | MMEJ-attributed deletion frequency ([3]; 500 nM) | MMEJ-attributed deletion frequency ([3]; 1000 nM) | NHEJ-attributed indel frequency ([4]; 200 nM) | NHEJ-attributed indel frequency ([4]; 500 nM) | NHEJ-attributed indel frequency ([4]; 1000 nM) | further results
O=C1CN(/N=C/c2ccc(-c3ccc([N+](=O)[O-])cc3)o2)C(=O)N1 [Dantrolene, sodium salt] (in DMSO) | 0.934 | 1.39 | 1.04 ± 0.091 | 0.873 ± 0.12 | 1.09 ± 0.25 | 0.966 ± 0.099 | 0.941 ± 0.052 | 0.9996 ± 0.0056 |  |  |  |  |  |  |  |  |  |  |  |  | cell survival ([1]; 10000 nM): 1.14; cell survival ([1]; 20000 nM): 1.33; cell survival ([1]; 50000 nM): 1.33; HDR ([2]; 10000 nM): 0.851 ± 0.068; HDR ([2]; 20000 nM): 0.547 ± 0.039; HDR ([2]; 50000 nM): 0.508 ± 0.039; MMEJ-attributed deletion frequency ([3]; 10000 nM): 0.9399 ± 0.0032; MMEJ-attributed deletion frequency ([3]; 20000 nM): 0.997 ± 0.048; MMEJ-attributed deletion frequency ([3]; 50000 nM): 0.979 ± 0.13; NHEJ-attributed indel frequency ([4]; 10000 nM): 1.06 ± 0.0076; NHEJ-attributed indel frequency ([4]; 20000 nM): 1.199 ± 0.0027; NHEJ-attributed indel frequency ([4]; 50000 nM): 1.24 ± 0.034
CC(CCc1ccccc1)NCC(O)c1ccc(O)c(C(N)=O)c1 (stereo not given) [Labetalol HCl] (in DMSO) | 0.953 | 1.39 | 1.05 ± 0.063 | 0.878 ± 0.059 | 1.04 ± 0.027 | 0.975 ± 0.13 | 0.988 ± 0.029 | 1.02 ± 0.0051 |  |  |  |  |  |  |  |  |  |  |  |  | cell survival ([1]; 10000 nM): 1.08; cell survival ([1]; 20000 nM): 1.14; cell survival ([1]; 50000 nM): 1.15; HDR ([2]; 10000 nM): 0.834 ± 0.025; HDR ([2]; 20000 nM): 0.757 ± 0.049; HDR ([2]; 50000 nM): 0.756 ± 0.028; MMEJ-attributed deletion frequency ([3]; 10000 nM): 1.13 ± 0.15; MMEJ-attributed deletion frequency ([3]; 20000 nM): 1.08 ± 0.034; MMEJ-attributed deletion frequency ([3]; 50000 nM): 1.25 ± 0.049; NHEJ-attributed indel frequency ([4]; 10000 nM): 1.05 ± 0.018; NHEJ-attributed indel frequency ([4]; 20000 nM): 1.093 ± 0.0077; NHEJ-attributed indel frequency ([4]; 50000 nM): 1.0876 ± 0.00036
CN(C)C(=O)C(CCN1CCC(O)(c2ccc(Cl)cc2)CC1)(c1ccccc1)c1ccccc1 [Loperamide HCl] (in DMSO) | 0.928 | 1.24 | 0.9969 ± 0.0053 | 1.01 ± 0.044 | 1.31 ± 0.23 | 1.1 ± 0.094 | 0.923 ± 0.077 | 0.9735 ± 0.0074 |  |  |  |  |  |  |  |  |  |  |  |  | cell survival ([1]; 10000 nM): 0.607; cell survival ([1]; 20000 nM): -0.00906; cell survival ([1]; 50000 nM): -0.00864; HDR ([2]; 10000 nM): 0.873 ± 0.035; HDR ([2]; 20000 nM): 0.136 ± 0.067; HDR ([2]; 50000 nM): 0.138 ± 0.11; MMEJ-attributed deletion frequency ([3]; 10000 nM): 0.998 ± 0.032; MMEJ-attributed deletion frequency ([3]; 20000 nM): 0.465 ± 0.16; MMEJ-attributed deletion frequency ([3]; 50000 nM): 0.224 ± 0.07; NHEJ-attributed indel frequency ([4]; 10000 nM): 0.928 ± 0.06; NHEJ-attributed indel frequency ([4]; 20000 nM): 0.324 ± 0.053; NHEJ-attributed indel frequency ([4]; 50000 nM): 0.186 ± 0.085
O[C@@H]1[C@H](O)[C@H](O)CO[C@H]1O [D-Ribose] (in DMSO) | 1.1 | 1.04 | 1.05 ± 0.025 | 1.06 ± 0.05 | 1.012 ± 0.0071 | 1.02 ± 0.16 | 1 ± 0.012 | 0.9861 ± 0.0075 | 1.06 | 1.16 | 1.06 | 1.13 ± 0.04 | 1.01 ± 0.06 | 1.13 ± 0.075 | 0.939 ± 0.061 | 1.02 ± 0.1 | 0.965 ± 0.026 | 0.9958 ± 0.0022 | 0.999 ± 0.01 | 0.979 ± 0.013 | 
CCc1c2c(nc3ccc(OC(=O)N4CCC(N5CCCCC5)CC4)cc13)-c1cc3c(c(=O)n1C2)COC(=O)[C@]3(O)CC [Irinotecan HCl Trihydrate] (in DMSO) | 0.00496 | 0.00337 | 0.16683 ± 7e-05 | 0.149 ± 0.016 | 0.541 ± 0.16 | 0.575 ± 0.049 | 0.439 ± 0.01 | 0.434 ± 0.028 | 0.618 | 0.158 | 0.0216 | 1.097 ± 0.0069 | 0.954 ± 0.14 | 0.662 ± 0.22 | 0.853 ± 0.043 | 0.688 ± 0.013 | 0.566 ± 0.31 | 0.914 ± 0.024 | 0.694 ± 0.021 | 0.617 ± 0.21 | 
N=C(NCCCCCCNC(=N)NC(=N)Nc1ccc(Cl)cc1)NC(=N)Nc1ccc(Cl)cc1 [Chlorhexidine HCl] (in DMSO) | 1.03 | 0.0831 | 0.874 ± 0.023 | 0.294 ± 0.063 | 1.07 ± 0.082 | 0.946 ± 0.12 | 1.05 ± 0.043 | 0.6546 ± 0.0051 | 1.04 | 1.24 | 1.02 | 1.06 ± 0.051 | 1.09 ± 0.038 | 1 ± 0.044 | 0.966 ± 0.067 | 0.8989 ± 0.0017 | 0.994 ± 0.067 | 0.973 ± 0.014 | 0.995 ± 0.021 | 0.997 ± 0.011 | 
OC[C@H]1O[C@@H](c2ccc(F)c(Cc3cc4ccccc4s3)c2)[C@H](O)[C@@H](O)[C@@H]1O [Ipragliflozin] (in DMSO) |  |  |  |  |  |  |  |  | 1.12 | 0.95 |  | 1.02 ± 0.07 | 1.05 ± 0.067 |  | 0.94 ± 0.11 | 1.07 ± 0.08 |  | 1.01 ± 0.012 | 0.995 ± 0.032 |  | cell survival ([1]; 20 nM): 0.951; cell survival ([1]; 50 nM): 1.11; cell survival ([1]; 100 nM): 0.915; HDR ([2]; 20 nM): 1.09 ± 0.029; HDR ([2]; 50 nM): 1 ± 0.037; HDR ([2]; 100 nM): 0.984 ± 0.064; MMEJ-attributed deletion frequency ([3]; 20 nM): 0.982 ± 0.092; MMEJ-attributed deletion frequency ([3]; 50 nM): 0.909 ± 0.09; MMEJ-attributed deletion frequency ([3]; 100 nM): 0.913 ± 0.041; NHEJ-attributed indel frequency ([4]; 20 nM): 1 ± 0.038; NHEJ-attributed indel frequency ([4]; 50 nM): 0.9974 ± 0.0051; NHEJ-attributed indel frequency ([4]; 100 nM): 1.005 ± 0.0019
C[C@@H]1O[C@@H](O[C@@H]2[C@@H](O)[C@H](OCCc3ccc(O)c(O)c3)O[C@H](CO)[C@H]2OC(=O)/C=C/c2ccc(O)c(O)c2)[C@H](O)[C@H](O)[C@H]1O [Verbascoside] (in DMSO) |  |  |  |  |  |  |  |  | 1.11 | 1.04 |  | 1.04 ± 0.044 | 1.11 ± 0.012 |  | 0.976 ± 0.13 | 1.02 ± 0.087 |  | 1 ± 0.019 | 0.975 ± 0.016 |  | cell survival ([1]; 20 nM): 0.884; cell survival ([1]; 50 nM): 1.1; cell survival ([1]; 100 nM): 0.99; HDR ([2]; 20 nM): 1.1 ± 0.064; HDR ([2]; 50 nM): 1.13 ± 0.017; HDR ([2]; 100 nM): 1.024 ± 0.0069; MMEJ-attributed deletion frequency ([3]; 20 nM): 1.01 ± 0.02; MMEJ-attributed deletion frequency ([3]; 50 nM): 0.993 ± 0.082; MMEJ-attributed deletion frequency ([3]; 100 nM): 1.06 ± 0.06; NHEJ-attributed indel frequency ([4]; 20 nM): 0.964 ± 0.014; NHEJ-attributed indel frequency ([4]; 50 nM): 1.01 ± 0.033; NHEJ-attributed indel frequency ([4]; 100 nM): 0.994 ± 0.03
CC(=O)O[C@]1(C(C)=O)CC[C@H]2[C@@H]3C=C(C)C4=CC(=O)CC[C@]4(C)[C@H]3CC[C@@]21C [Megestrol Acetate] (in EtOH) |  |  |  |  |  |  |  |  | 1.12 | 1.05 |  | 0.953 ± 0.015 | 0.96 ± 0.028 |  | 1.1 ± 0.091 | 0.9348 ± 0.0058 |  | 1 ± 0.045 | 1.02 ± 0.032 |  | cell survival ([1]; 20 nM): 1.6; cell survival ([1]; 50 nM): 1.46; cell survival ([1]; 100 nM): 1.18; HDR ([2]; 20 nM): 0.975 ± 0.027; HDR ([2]; 50 nM): 0.93 ± 0.072; HDR ([2]; 100 nM): 0.95 ± 0.068; MMEJ-attributed deletion frequency ([3]; 20 nM): 1.01 ± 0.013; MMEJ-attributed deletion frequency ([3]; 50 nM): 1.16 ± 0.079; MMEJ-attributed deletion frequency ([3]; 100 nM): 0.9716 ± 0.0036; NHEJ-attributed indel frequency ([4]; 20 nM): 0.999 ± 0.028; NHEJ-attributed indel frequency ([4]; 50 nM): 1.004 ± 0.007; NHEJ-attributed indel frequency ([4]; 100 nM): 1.03 ± 0.037
CC(C)/N=c1\cc2n(-c3ccc(Cl)cc3)c3ccccc3nc-2cc1Nc1ccc(Cl)cc1 [Clofazimine] (in DMSO) | 0.597 | 0.252 | 0.794 ± 0.029 | 0.772 ± 0.058 | 0.957 ± 0.097 | 0.791 ± 0.14 | 1.028 ± 0.0037 | 0.974 ± 0.014 | 0.955 | 1.06 | 0.752 | 0.942 ± 0.032 | 0.91 ± 0.019 | 0.912 ± 0.042 | 1.07 ± 0.15 | 0.967 ± 0.077 | 0.949 ± 0.022 | 1.01 ± 0.022 | 1.027 ± 0.004 | 0.999 ± 0.017 | 
O=C(c1cc(Cc2n[nH]c(=O)c3ccccc23)ccc1F)N1CCN(C(=O)C2CC2)CC1 (in DMSO) | 0.106 | 0.0246 | 1.03 ± 0.017 | 0.432 ± 0.03 | 0.614 ± 0.013 | 0.746 ± 0.11 | 0.6123 ± 0.0021 | 0.513 ± 0.04 | 0.395 | 0.388 | 0.217 | 1.28 ± 0.18 | 1.18 ± 0.16 | 1.341 ± 0.0076 | 0.9 ± 0.073 | 0.64 ± 0.079 | 0.705 ± 0.18 | 0.814 ± 0.042 | 0.78 ± 0.042 | 0.698 ± 0.076 | 
